# Values of other authors in patent US20040023969A1, “Combination of an allosteric alkyne inhibitor of matrix metalloproteinase-13 with celecoxib or valdecoxib” (priority 2002, published 2004).
compound,measurement,setting,value
"Cc1onc(-c2ccccc2)c1-c1ccc(S(N)(=O)=O)cc1 [valdecoxib, 4-(5-methyl-3-phenyl-4-isoxazolyl)-benzenesulfonamide]",Tolerability in clinical studies,combined analysis of various clinical studies,well tolerated
same,"Overall upper gastrointestinal safety profile (ulcers, perforations, obstructions and GI bleeds)","compared with ibuprofen, diclofenac and naproxen",significantly better than the conventional NSAIDs studied
